Data published in US10160729B2, “Hsp70 modulators and methods for making and using the same” (Memorial Sloan Kettering Cancer Center, priority 2014, dated 2018).

What follows are compounds tested on MOLM-13 cells (assay: Caspase cleavage assay (Caspase3, 7 activation)). Details: Homo sapiens, 16 h treatment, caspase substrate Z-DEVD-R110, read-out: c* Concentration at which 50% of the maximum signal was achieved (caspase activation).
Format: cell-based
Method: Caspase3, 7 Activation. MOLM-13 cells (30,000 cells/well) were plated in black 96-well plates (Corning Cat. #3603) in 40 μL of RPMI media, and left in an incubator (37° C., 5% CO2) for up to 24 h. Cells were treated for 16 h with compounds or DMSO (control) at desired concentrations in 50 μL of media. Drugs were added in triplicate wells. Following exposure of cells to Hsp70 inhibitors, 50 μL of buffer containing 10 mM HEPES (pH 7.5), 2 mM EDTA, 0.1% CHAPS and the caspase substrate Z-DEVD-R110 at 25 μM was added to each well. Plates were incubated until the signal stabilized and then the fluorescence signal of each well was measured in an Analyst GT microplate reader. The percentage increase in apoptotic cells was calculated by comparison of the fluorescence reading obtained from treated versus control cells.

| Structure (SMILES) | EC50 |
| --- | --- |
| CN1CCN(c2ncc(Sc3ccc(C(=O)NCN4CCCCC4)cc3)c(OCc3ccccc3)n2)CC1 [compound 93, 4-((4-(Benzyloxy)-2-(4-methylpiperazin-1-yl)pyrimidin-5-yl)thio)-N-(piperidin-1-ylmethyl)benzamide] | 1000 to 1200 nM |
| COc1ccc(COc2nc(N3CCN(C)CC3)ncc2Sc2ccc(C(N)=O)cc2)cc1 [compound 96, 4-((4-((4-Methoxybenzyl)oxy)-2-(4-methylpiperazin-1-yl)pyrimidin-5-yl)thio)benzamide] | 400 to 1000 nM |
| CN1CCN(c2ncc(Sc3ccc(C(N)=O)cc3)c(OCc3cccc(N=[N+]=[N-])c3)n2)CC1 [compound 101, 4-((4-((3-Azidobenzyl)oxy)-2-(4-methylpiperazin-1-yl)pyrimidin-5-yl)thio)benzamide] | < 200 nM |
| CN1CCN(c2ncc(Sc3ccc(C(N)=O)cc3)c(NCc3ccccc3)n2)CC1 [compound 102, 4-((4-(Benzylamino)-2-(4-methylpiperazin-1-yl)pyrimidin-5-yl)thio)benzamide] | 200 to 400 nM |
| COc1cccc(COc2nc(N3CCN(C)CC3)ncc2Sc2ccc(C(N)=O)c(Cl)c2)c1 [compound 108, 2-Chloro-4-((4-((3-methoxybenzyl)oxy)-2-(4-methylpiperazin-1-yl)pyrimidin-5-yl)thio)benzamide] | < 200 nM |
| COc1ccc(F)c(COc2nc(N3CCN(C)CC3)ncc2Sc2ccc(C(N)=O)c(Cl)c2)c1 [compound 109] | < 200 nM |
| COc1cc(F)cc(COc2nc(N3CCN(C)CC3)ncc2Sc2ccc(C(N)=O)c(Cl)c2)c1 [compound 110, 2-Chloro-4-((4-((3-fluoro-5-methoxybenzyl)oxy)-2-(4-methylpiperazin-1-yl)pyrimidin-5-yl)thio)benzamide] | 200 to 400 nM |
| COc1cc(COc2nc(N3CCN(C)CC3)ncc2Sc2ccc(C(N)=O)c(Cl)c2)ccc1F [compound 111, 2-Chloro-4-((4-((4-fluoro-3-methoxybenzyl)oxy)-2-(4-methylpiperazin-1-yl)pyrimidin-5-yl)thio)benzamide] | < 200 nM |
| COc1c(F)ccc(COc2nc(N3CCN(C)CC3)ncc2Sc2ccc(C(N)=O)c(Cl)c2)c1F [compound 112, 2-Chloro-4-((4-((2,4-difluoro-3-methoxybenzyl)oxy)-2-(4-methylpiperazin-1-yl)pyrimidin-5-yl)thio)benzamide] | < 200 nM |
| CN1CCN(c2ncc(Sc3ccc(C(N)=O)c(Cl)c3)c(OCc3ccc(F)c(Cl)c3)n2)CC1 [compound 113, 2-Chloro-4-((4-((3-chloro-4-fluorobenzyl)oxy)-2-(4-methylpiperazin-1-yl)pyrimidin-5-yl)thio)benzamide] | < 200 nM |
| CN1CCN(c2ncc(Sc3ccc(C(N)=O)c(Cl)c3)c(OCc3ccc(F)c(Br)c3)n2)CC1 [compound 114, 4-((4-((3-Bromo-4-fluorobenzyl)oxy)-2-(4-methylpiperazin-1-yl)pyrimidin-5-yl)thio)-2-chlorobenzamide] | < 200 nM |
| CN1CCN(c2ncc(Sc3ccc(C(N)=O)c(Cl)c3)c(OCc3ccc(F)c(C(F)(F)F)c3)n2)CC1 [compound 115, 2-Chloro-4-((4-((4-fluoro-3-(trifluoromethyl)benzyl)oxy)-2-(4-methylpiperazin-1-yl)pyrimidin-5-yl)thio)benzamide] | 200 to 400 nM |
| CN1CCN(c2ncc(Sc3ccc(C(N)=O)c(Cl)c3)c(OCc3cccc(N(C)C)c3)n2)CC1 [compound 116, 2-Chloro-4-((4-((3-(dimethylamino)benzyl)oxy)-2-(4-methylpiperazin-1-yl)pyrimidin-5-yl)thio)benzamide] | < 200 nM |
| CN1CCN(c2ncc(Sc3ccc(C(N)=O)c(Cl)c3)c(OCc3cccc(N)c3)n2)CC1 [compound 117, 4-((4-((3-Aminobenzyl)oxy)-2-(4-methylpiperazin-1-yl)pyrimidin-5-yl)thio)-2-chlorobenzamide] | 200 to 400 nM |
| CN1CCN(c2ncc(Sc3ccc(C(N)=O)c(Cl)c3)c(OCc3ccc(F)c(N)c3)n2)CC1 [compound 118, 4-((4-((3-Amino-4-fluorobenzyl)oxy)-2-(4-methylpiperazin-1-yl)pyrimidin-5-yl)thio)-2-chlorobenzamide] | 400 to 1000 nM |
| CN1CCN(c2ncc(Sc3ccc(C(N)=O)c(Cl)c3)c(OCc3cccc(OC(F)F)c3)n2)CC1 [compound 121, 2-Chloro-4-((4-((3-(difluoromethoxy)benzyl)oxy)-2-(4-methylpiperazin-1-yl)pyrimidin-5-yl)thio)benzamide] | 200 to 400 nM |
| CN1CCN(c2ncc(Sc3ccc(C(N)=O)c(Cl)c3)c(OCc3cccc(O)c3)n2)CC1 [compound 122, 2-Chloro-4-((4-((3-hydroxybenzyl)oxy)-2-(4-methylpiperazin-1-yl)pyrimidin-5-yl)thio)benzamide] | 200 to 400 nM |

| Structure (SMILES) | EC50 |
| --- | --- |
| COc1cccc(COc2nc(N3CCN(C)CC3)ncc2Sc2ccc(C(N)=O)c(Cl)c2)n1 [compound 123, 2-Chloro-4-((4-((6-methoxypyridin-2-yl)methoxy)-2-(4-methylpiperazin-1-yl)pyrimidin-5-yl)thio)benzamide] | 200 to 400 nM |
| COc1cc(COc2nc(N3CCN(C)CC3)ncc2Sc2ccc(C(N)=O)c(Cl)c2)ccn1 [compound 124, 2-Chloro-4-((4-((2-methoxypyridin-4-yl)methoxy)-2-(4-methylpiperazin-1-yl)pyrimidin-5-yl)thio)benzamide] | < 200 nM |
| COc1cncc(COc2nc(N3CCN(C)CC3)ncc2Sc2ccc(C(N)=O)c(Cl)c2)c1 [compound 125, 2-Chloro-4-((4-((5-methoxypyridin-3-yl)methoxy)-2-(4-methylpiperazin-1-yl)pyrimidin-5-yl)thio)benzamide] | < 200 nM |
| COc1ccnc(COc2nc(N3CCN(C)CC3)ncc2Sc2ccc(C(N)=O)c(Cl)c2)c1 [compound 126, 2-Chloro-4-((4-((4-methoxypyridin-2-yl)methoxy)-2-(4-methylpiperazin-1-yl)pyrimidin-5-yl)thio)benzamide] | 200 to 400 nM |
| CN1CCN(c2ncc(Sc3ccc(C(N)=O)c(Cl)c3)c(OCc3ccc(F)c(O)c3)n2)CC1 [compound 127, 2-Chloro-4-((4-((4-fluoro-3-hydroxybenzyl)oxy)-2-(4-methylpiperazin-1-yl)pyrimidin-5-yl)thio)benzamide] | 400 to 1000 nM |
| CN1CCN(c2ncc(Sc3ccc(C(N)=O)c(C(F)(F)F)c3)c(OCc3cccc(Cl)c3)n2)CC1 [compound 131, 4-((4-((3-Chlorobenzyl)oxy)-2-(4-methylpiperazin-1-yl)pyrimidin-5-yl)thio)-2-(trifluoromethyl)benzamide] | < 200 nM |
| CN1CCN(c2ncc(Sc3ccc(C(N)=O)c(C(F)(F)F)c3)c(OCc3ccc(F)c(Cl)c3)n2)CC1 [compound 132, 4-((4-((3-Chloro-4-fluorobenzyl)oxy)-2-(4-methylpiperazin-1-yl)pyrimidin-5-yl)thio)-2-(trifluoromethyl)benzamide] | < 200 nM |
| CN1CCN(c2ncc(Sc3ccc(C(N)=O)c(C(F)(F)F)c3)c(OCc3cc(Cl)ccc3F)n2)CC1 [compound 133, 4-((4-((5-Chloro-2-fluorobenzyl)oxy)-2-(4-methylpiperazin-1-yl)pyrimidin-5-yl)thio)-2-(trifluoromethyl)benzamide] | < 200 nM |
| CN1CCN(c2ncc(Sc3ccc(C(N)=O)c(C(F)(F)F)c3)c(OCc3ccc(F)c(Br)c3)n2)CC1 [compound 134, 4-((4-((3-Bromo-4-fluorobenzyl)oxy)-2-(4-methylpiperazin-1-yl)pyrimidin-5-yl)thio)-2-(trifluoromethyl)benzamide] | 200 to 400 nM |
| CN1CCN(c2ncc(Sc3ccc(C(N)=O)c(C(F)(F)F)c3)c(OCc3ccc(F)cc3F)n2)CC1 [compound 135, 4-((4-((2,4-Difluorobenzyl)oxy)-2-(4-methylpiperazin-1-yl)pyrimidin-5-yl)thio)-2-(trifluoromethyl)benzamide] | 200 to 400 nM |
| COc1cccc(COc2nc(N3CCN(C)CC3)ncc2Sc2ccc(C(N)=O)c(C(F)(F)F)c2)c1 [compound 136, 4-((4-((3-Methoxybenzyl)oxy)-2-(4-methylpiperazin-1-yl)pyrimidin-5-yl)thio)-2-(trifluoromethyl)benzamide] | < 200 nM |
| COc1cc(COc2nc(N3CCN(C)CC3)ncc2Sc2ccc(C(N)=O)c(C(F)(F)F)c2)ccc1F [compound 137, 4-((4-((4-Fluoro-3-methoxybenzyl)oxy)-2-(4-methylpiperazin-1-yl)pyrimidin-5-yl)thio)-2-(trifluoromethyl)benzamide] | < 200 nM |
| COc1ccc(F)c(COc2nc(N3CCN(C)CC3)ncc2Sc2ccc(C(N)=O)c(C(F)(F)F)c2)c1 [compound 138, 4-((4-((2-Fluoro-5-methoxybenzyl)oxy)-2-(4-methylpiperazin-1-yl)pyrimidin-5-yl)thio)-2-(trifluoromethyl)benzamide] | < 200 nM |
| CN1CCN(c2ncc(Sc3ccc(C(N)=O)c(C(F)(F)F)c3)c(OCc3cccc(N(C)C)c3)n2)CC1 [compound 139, 4-((4-((3-(Dimethylamino)benzyl)oxy)-2-(4-methylpiperazin-1-yl)pyrimidin-5-yl)thio)-2-(trifluoromethyl)benzamide] | < 200 nM |
| CN1CCN(c2ncc(Sc3ccc(C(N)=O)c(C(F)(F)F)c3)c(NCc3cccc(Cl)c3)n2)CC1 [compound 141, 4-((4-((3-Chlorobenzyl)amino)-2-(4-methylpiperazin-1-yl)pyrimidin-5-yl)thio)-2-(trifluoromethyl)benzamide] | 1000 to 1200 nM |
| COc1cc(COc2nc(N3CCN(C)CC3)ncc2Sc2ccc(N)nc2)ccc1F [compound 151, 5-((4-((4-Fluoro-3-methoxybenzyl)oxy)-2-(4-methylpiperazin-1-yl)pyrimidin-5-yl)thio)pyridin-2-amine] | < 200 nM |
